The values that follow come from patent publication US20030158250A1, “Agents correcting gene expression regulatory error” (priority 2000, published 2003).

The structures appear in SMILES notation.

The test system of one test is HO1 protein. Nature of the test: HO1 protein induction in RAW 264.7 cells (Western blot). The class given is cell-based. More on the design: key to Intensity of Bands of HO1 Protein: those showing no bands are indicated by “−,”; the intensities of the bands are indicated by +−, +, ++ in the ascending order of the intensities of the bands; the intensities of the bands are indicated by +−, +, ++ in the ascending order of the intensities of the bands; the intensities of the bands are indicated by +−, +, ++ in the ascending order of the intensities of the bands. Particulars: 15 hours. How it is done:
RAW 264.7 cells (ATCC TIB 71) were suspended in a Dulbecco's modified Eagle's medium (manufactured by Bio Whittaker; 12-604F) containing 10% fetal bovine serum (manufactured by Gibco), so as to have a concentration of 3×10^5 cells/ml. The cell suspension was added to each well of a 6-well microtiter plate in a volume of 5 ml each. The cells were cultured at 37° C. in the presence of 5% CO2 gas overnight. To each well was added 50 μl of 4 mM, 2 mM or 1 mM DGE aqueous solution (each of final concentrations: 40 μM, 20 μM or 10 μM), and the cells were cultured for 15 hours. […] The cells were harvested by peeling off the cells from the plate with a scraper. The harvested cells were suspended in 0.1 M Tris-HCl buffer (pH 7.5) containing 0.05 mM pepstatin (manufactured by Sigma, P5318), 0.2 mM leupeptin (manufactured by Sigma, L2884), 1 mM phenylmethylsulfonyl fluoride (manufactured by nakalai tesque, 273-27), 10 mM disodium dihydrogenethylenediaminetetraacetate and 0.1% Triton X-100, and subjected to freezing and thawing once. Thereafter, the supernatant obtained by centrifugation was used as a protein fraction. The protein content in the protein fraction was assayed by Micro BCA Protein Assay Reagent (one manufactured by Pierce sold by Takara Shuzo Co., Ltd., P7411). Each of the resulting protein fraction samples was mixed with an equal volume of 0.125 M Tris-HCl buffer (pH 6.8) containing 4% sodium lauryl sulfate (SDS), 2% 2-mercaptoethanol,
0.001% Bromophenol Blue and 20% glycerol, and the mixture was treated at 100° C. for 5 minutes. A mixture containing a protein in an amount of 10 μg or so was loaded on 12.5% SDS-polyacrylamide gel, and electrophoresed with a constant current of 20 mA. In a blotting buffer containing 48 mM Tris, 39 mM glycine, 20% methanol, 0.0375% SDS, the gel after the electrophoresis was transferred to a PDVF membrane (manufactured by Millipore Corporation, IPVHOOO 10) in accordance with the attached protocol, using transblot SD cell semi-drive blotting device (manufactured by BioRad), at a constant voltage of 15 V for 25 minutes. The transferred PVDF membrane was blocked overnight in a Block Ace (manufactured by DAINIPPON PHARMACEUTICAL CO., LTD., UK-B25) solution at 4° C. The blocked membrane was washed for 15 minutes thrice with phosphate-buffered physiological saline containing 0.1% Tween 20 under gentle shaking. Thereafter, the membrane was subjected to the reaction under gentle shaking in phosphate-buffered physiological saline containing 10% Block Ace with a 200 ng/ml anti-HOl antibody (N-19, manufactured by Santa Cruz, sc-7696) and 0.1% Tween 20 at room temperature for 1 hour, and was washed for 15 minutes thrice with phosphate-buffered physiological saline containing 0.1% Tween 20 under gentle shaking. Next, the membrane was subjected to the reaction under gentle shaking in phosphate-buffered physiological saline with 10% Block Ace with 0.1% peroxidase-conjugated rabbit anti-goat IgG (H+L) antibody (manufactured by Zymed, 61-1620) and 0.1% Tween 20 at room temperature for 1 hour, and was washed for 15 minutes five times with phosphate-buffered physiological saline containing 0.1% Tween 20 under gentle shaking. Subsequently, a PVDF membrane was stained by using Western blot Chemiluminescence Reagent Plus (one manufactured by NEN Life Science Products sold by Daiichikagaku, NEL103) in accordance with the attached protocol, and sensitized on an X-ray film (manufactured by Kodak, CAT 1651454). The sensitized film was developed with FPM800 (manufactured by Fuji Photo Film Co., Ltd.).
As a result, there could be confirmed a band ascribed to HO1 protein in the group with addition of DGE. […] In the table, + symbols were given in accordance with the intensity of the band for HO1 protein. In other words, in Table 3, those showing no bands are indicated by “−,” and the intensities of the bands are indicated by +−, +, ++ in the ascending order of the intensities of the bands.
(In western blotting, separated proteins are transferred to a membrane and probed.)

For another test, the system named is interleukin-10 (IL-10). Nature of the test: LPS-induced IL-10 production in RAW 264.7 cells (ELISA). It counts as cell-based. Conditions: final concentration 20 μM, 5 hours, then LPS 18 hours, IL-10 in culture supernatant by ELISA. How it is done: RAW 264.7 cells (ATCC TIB 71) were suspended in a Dulbecco's modified Eagle's medium (manufactured by Bio Whittaker; 12-604F) containing 10% fetal bovine serum (manufactured by Gibco), so as to have a concentration of 3×10^5 cells/ml. The cell suspension was added to each well of a 48-well microtiter plate in a volume of 0.5 ml each. The cells were cultured at 37° C. in the presence of 5% CO2 gas overnight. To each well was added 5 μl of a 2 mM DGE aqueous solution (final concentration: 20 μM), and the cells were cultured for additional 5 hours. Thereafter, 5 μl of a 100 μg/ml lipopolysaccharide (LPS, manufactured by Sigma, L-2012) aqueous solution was added thereto, and the cells were cultured for 18 hours, and thereafter the culture supernatant was recovered. The content of the interleukin-10 (IL-10) in the culture supernatant was assayed by the enzyme immuno-sandwich assay. Here, the group with no addition of DGE and LPS aqueous solution (control) was set as a negative control, and the group with addition of LPS aqueous solution (control+LPS) alone was set as a positive control. In addition, all of the assays were carried out twice.

Consider `O=C1C=CC(CO)OC1O` [DGE, L-glycero-1,5-epoxy-1αβ,6-dihydroxy-cis-hex-3-en-2-one], for which the “induction action for HO production (band ascribed to HO1 protein)” value with HO1 protein (DGE at 10 to 40 μM) was “DGE concentration-dependent”. Moreover, the “Intensity of Bands of HO1 Protein” value in the test on HO1 protein (final concentration 10 μM) is given as “+−”; in the test with HO1 protein (final concentration 20 μM) it was “+”; with HO1 protein (final concentration 40 μM), “++”. Further, in the test on interleukin-10 (IL-10), the “inhibition of LPS-induced IL-10 production” value is “inhibition of LPS-induced IL-10 production was found”.
